We go through 71 compounds from PubChem BioAssay AID179 (DTP/NCI, 2004).

The test system of the assay is CEM cells HIV-1 protection, formazan growth assay. Kind of assay: NCI AIDS Antiviral Assay. The note with it: for pIC50: measured here: growth of uninfected CEM cells. The gist of the method: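 Protection of CEM cells against HIV-1 was scored from cell growth (soluble formazan) across five concentrations, with parallel uninfected cells. Lack of protection may reflect toxicity.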

pEC50, pIC50: −log10 of the molar value. Activity calls are given as the source filed them.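 How the source made its calls: active means compounds giving half or more protection of infected cells from virus-caused growth loss, again on retest; inactive means the rest.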 Where a SMILES comes first, the peptide text is derived from it. The star is where a group is joined. Cbz = O=C(OCc1ccccc1)*; Boc = CC(C)(C)OC(=O)*; OSu = O=C1CCC(=O)N1O*; Bn = c1ccc(C*)cc1

Consider `CC(C)C(=O)C(C)(C)C(=O)C(C)(C)C(=O)OC(C)(C)C`, for which the pEC50 (commonly −log10 of the EC50, conventionally taken in molar units) was below 3.70 and the pIC50 (usually the negative decadic logarithm of the IC50, by convention in mol/L) was below 3.70.
Turning to `O=C(OCC(Cl)(Cl)Cl)N1CC[C@@H](C2CCCCC2)C1`, the pEC50 was below 3.70 and the pIC50 is 4.28.
Turning to `CCOP(=O)(OCC)/C(C#N)=C/c1ccc(C#N)cc1`, the pEC50 was below 3.91 and the pIC50 was below 3.91.
As to `COc1ccc2c(c1)OC[C@@H]1c3cc(NC(=O)c4ccccc4)c(OC)cc3N(S(=O)(=O)c3ccccc3)[C@H]21`, the pEC50 is below 3.70 and the pIC50 is below 3.70.
`CN1CCN(CCn2c3c4ccccc4ccc3c3oc(=O)c4ccccc4c32)CC1`: the pEC50 is below 4.00 and the pIC50 was 5.52.
As to `Cc1ccc2c(c1)-c1c3c(nn1C)-c1ccccc1SC3O2` (stereo not given), the pEC50 was below 4.63 and the pIC50 was below 4.63.
Consider `CN1N=C(N)c2cn(C3OC(COP(=O)(O)O)C(O)C3O)c3ncnc1c23` (stereo not given), for which the pEC50 is below 4.24 and the pIC50 was 4.67.
As to `Cn1cc2ccccc2c1-c1nc(F)nc(Nc2ccc(N)cc2)n1`, the pEC50 was below 4.81 and the pIC50 was 5.10.
As to `O=C(Nc1ccccc1S)OCc1ccccc1`, the pEC50 is 4.46 and the pIC50 is 4.33.
As for `Cc1c(C2(c3cc(Br)c(O)c(Br)c3C)OS(=O)(=O)c3ccccc32)cc(Br)c(O)c1Br`, the outcome was inactive.
For the compound `COC(=O)c1cc2c(C(=O)OC)cc1CSCc1cccc(c1)CSC2`, the pEC50 is below 3.70 and the negative logarithm of the IC50 (pIC50) was below 3.70.
With `CCCCCCCCCCOC1C(C(O)CNCCCN(C)C)OC2OC3(CCCCC3)OC21` (stereo not given), the pEC50 is below 3.70 and the pIC50 is 5.99.
For `Nc1nc[n+](Cc2ccccc2)c2ncn(Cc3ccccc3)c12`, the pEC50 was below 3.20 and the negative logarithm of the IC50 (pIC50) is 4.02.
As to `O=S(=O)(/N=S(/Nc1ccccc1)C(F)(F)Cl)c1ccccc1` (stereo not given), the pEC50 is below 3.70 and the pIC50 is below 3.70.
In the case of `Nc1nccc(CCc2ccccc2)n1`, the pEC50 is below 4.44 and the pIC50 was below 4.44.
For `c1ccc(COC[C@H]2O[C@@H](c3ccccc3)C[C@@H](OCc3ccccc3)C2OCc2ccccc2)cc1` (stereo not given in full), the pEC50 was below 3.70 and the pIC50 was below 3.70.
As to `O=C(O)CCC(NC(=O)c1ccc(CNc2nc3cc(C(F)(F)F)ccc3nc2C(=O)O)cc1)C(=O)O` (stereo not given), the pEC50 is below 3.70 and the negative-log IC50 (pIC50) is below 3.70.
In the case of `CC(C)(C)c1cc(Oc2ccc(C#N)c(C#N)c2)cc(C(C)(C)C)c1`, the pEC50 is below 4.39 and the pIC50 was below 4.39.
For `CC1=CC(=C(c2cc(C)c(O)c(C(=O)O)c2)c2cc(C)c(O)c(C(=O)O)c2)C=C(C(=O)O)C1=O`, the outcome was inactive.
As for `c1cnc2c(c1)n[n+]1[n-]c3ccccc3n21`, the pEC50 is below 4.91 and the pIC50 was below 4.91.
Regarding `O=C(NC(C(F)(F)F)(C(F)(F)F)P(=O)(c1ccccc1)c1ccccc1)C(C(F)(F)F)C(F)(F)F`, the pEC50 is below 3.70 and the pIC50 is 4.93.
For `CC(=O)NNC(=S)/N=C/C(C(=O)Nc1ccc(Cl)cc1)=C(\C)O`, the outcome was inactive.
For `Cc1ccc(S(=O)(=O)OCC2CC[C@]3(C)C4CCC5(C)C(CCC5[C@H](C)CCC(=O)O)[C@@H]4CC[C@@H]3C2)cc1` (stereo not given in full), the pEC50 is below 5.31 and the pIC50 is below 5.31.
Consider `O=C(NCC(O)COc1ccccc1)c1ccccc1O` (stereo not given), for which the pEC50 is below 3.70 and the pIC50 is 3.94.
Turning to `O=C1C2C=CC(C2)C(c2ccc(O)cc2)N1O` (stereo not given), the pEC50 was below 3.11 and the pIC50 was below 3.11.
As for `O=C(/C(=N/Nc1ccccc1)c1ccc([N+](=O)[O-])cc1)c1ccc([N+](=O)[O-])cc1`, the outcome was inactive.
`C[n+]1cn(-c2nc3ccccc3nc2[N-]S(=O)(=O)c2ccccc2)c2ccccc21`: the pEC50 was below 3.70 and the pIC50 was below 3.70.
On to `CCOC(=O)C1=C(C)N(NC(N)=O)C2(N)N(NC(N)=O)C(C)=C(C(=O)OCC)C12C(=O)OCC` (stereo not given), for which the pEC50 is below 3.29 and the negative-log IC50 (pIC50) is below 3.29.
`CN=C(NC)c1ccc(NC(=O)c2ccc(C(=O)Nc3ccc(C(=NC)NC)c(C)c3)cc2)cc1C`: the result was inactive.
As for `Cc1cc(C)c(-c2noc(-c3ccc(Cl)cc3)c2C2=NCCCN2)c(C)c1`, the pEC50 is below 4.45 and the pIC50 is 4.61.
On to `O=[N+]([O-])c1ccccc1S(=O)c1ccccc1` (stereo not given), for which the negative logarithm of the EC50 (pEC50) was 5.17 and the pIC50 was 4.65.
On to `C=C(C)COc1cc(NC(=S)OC(C)C)ccc1Cl`, for which the negative logarithm of the EC50 (pEC50) was 6.09 and the pIC50 was 5.32.
Consider `CCN1C(=O)CS/C1=N\NC(=O)CSc1nc2ccccc2c(=O)n1CC`, for which the pEC50 is below 3.70 and the pIC50 was 3.82.
As for `CCCC=NCCOC(=S)[S-].CCCC=NCCOC(=S)[S-].[Zn+2]`, the pEC50 was below 4.00 and the pIC50 was 4.25.
Consider `CC1(c2nc3ccccc3[nH]2)CCC(C#N)C(C)(C)O1` (stereo not given), for which the pEC50 is below 3.70 and the pIC50 was below 3.70.
As for `Cc1ccc(NC(=O)COC(=O)c2cccc3c(=O)c4ccccc4[nH]c23)cc1`, the result was inactive.
`O=[N+]([O-])c1ccc(CN(CCCl)OCCCl)cc1`: the pEC50 was below 3.70 and the pIC50 was 4.43.
For the compound `CC1(C)OP(=O)(c2ccccc2)C=C1Sc1ccc([N+](=O)[O-])cc1[N+](=O)[O-]` (stereo not given), the pEC50 is 4.35 and the pIC50 is 3.98.
With `Cc1c(CN2CCN(C)CC2)c(O)c2c(=O)c3c(O)c(CN4CCN(C)CC4)c(O)c4c5c(O)c(CN6CCN(C)CC6)c(O)c6c(=O)c7c(O)c(CN8CCN(C)CC8)c(C)c8c1c2c(c34)c(c78)c65`, the pEC50 is below 4.99 and the pIC50 is below 4.99.
As for `C=CCOc1ccc(/C(N=Nc2ccccc2)=N/NC(=O)c2ccccc2)cc1OC`, the pEC50 is below 3.70 and the pIC50 was 3.97.
The like results for `O=C(CCCN1CCc2[nH]c3ccccc3c2C1)c1ccc(F)cc1` were, in that order, below 3.70 and 4.47.
In the case of `O=c1ccc2ccc(OP(=O)(O)O)cc2o1`, the pEC50 is below 3.70 and the pIC50 was below 3.70.
For `CCOC(=O)c1sc(SSc2sc(C(=O)OCC)c(C)c2[N+](=O)[O-])c([N+](=O)[O-])c1C`, the pEC50 is below 3.70 and the pIC50 was 3.86.
For `CC(C)(C)OC(=O)NC(Cc1ccc(OCc2ccccc2)cc1)C(=O)NC(CCCCNC(=O)OCc1ccccc1)C(=O)ON1C(=O)CCC1=O` (stereo not given) (Boc-Tyr(Bn)-Lys(Cbz)-OSu; configuration not given here), in that order: below 3.70 and 4.44.
On to `O=c1ccn(C2OC(CN(O)CCC3C(O)C(CO)OC3n3ccc(=O)[nH]c3=O)C(O)C2O)c(=O)[nH]1` (stereo not given), for which the pEC50 was below 3.70 and the pIC50 was below 3.70.
For the compound `Cc1cc(=O)n2c(n1)sc1ccc3ccccc3c12`, the pEC50 is below 3.70 and the pIC50 is below 3.70.
As for `O=C1CCCCCC1CC(Sc1ccccc1)Sc1ccccc1` (stereo not given), the pEC50 was below 3.70 and the pIC50 was 4.79.
As to `CCOC(=O)Nc1cc2c(c(N)n1)N=C(c1ccc3ccccc3c1)CN2`, the pEC50 was below 3.70 and the pIC50 was 6.51.
Turning to `NC(C(=O)OC(=O)c1ccccc1)C(=O)OC(=O)c1ccccc1`, the pEC50 is below 3.70 and the pIC50 is 4.01.
`O=c1c2cc([N+](=O)[O-])ccc2n2n1Cc1ccccc1C2`: the pEC50 is below 3.70 and the pIC50 is below 3.70.
With `O=[As]c1ccc(C(=O)O)cc1` (stereo not given), the pEC50 was below 2.93 and the pIC50 was 3.61.
Take `NC(=S)N/N=C1\CCCCc2ccccc21`: the result was inactive.
On the same count and under the same terms, the entry for `CCc1cccc(C(C)C)c1NC(=O)/C(=N\NC(N)=O)C(C(=O)OC)c1cnc2ccccc2n1` (stereo not given) is “inactive”.
Consider `Nc1nc2c(c(=O)[nH]1)Cc1nc(N)[nH]c(=O)c1C2`, for which the pEC50 was below 4.61 and the pIC50 is below 4.61.
In the case of `Cc1ccc(S(=O)(=O)n2ccnc2)cc1`, the pEC50 was below 3.70 and the pIC50 was below 3.70.
Regarding `CN(C)P(=S)(CCPc1ccccc1)N(C)C` (stereo not given), the pEC50 is below 4.74 and the pIC50 was below 4.74.
Turning to `N=c1nc(N)n2c(N)nc(=N)n12`, the pEC50 is below 3.81 and the pIC50 is below 3.81.
`COC(=O)C1=CC(=O)OC1(OO)c1ccc(Br)cc1` (stereo not given): the pEC50 was below 3.70 and the pIC50 was 4.41.
Turning to `CCOC(=O)/C=C/c1ccc2c(c1)OC(c1ccc(O)c(OC)c1)C(CO)O2` (stereo not given), the pEC50 was below 3.89 and the pIC50 was 4.61.
On to `CC1CN=C(CCc2ccc(NC(=O)c3ccc(C(=O)Nc4ccc(CCC5=NCC(C)N5)cc4)cc3)cc2)N1` (stereo not given), for which the pEC50 was below 3.70 and the negative-log IC50 (pIC50) was 4.34.
As to `O=C(O)CNCc1c2ccccc2[n+]([O-])c2ccccc12`, the result was inactive.
In the case of `CN(C)c1ccc(/C=C/C=C(/C#N)c2ccccc2)cc1`, the pEC50 is below 4.00 and the pIC50 was 4.91.
As to `N#CNC(=NCc1ccccc1)NCc1ccccc1`, the pEC50 was 3.70 and the pIC50 is 3.47.
With `CC(C)CCC[C@H](C)[C@H]1CC[C@H]2[C@@H]3CC=C4CC(OC(=O)OC5CCC6(C)CC7CCC6(OO7)C5(C)C)CC[C@]4(C)[C@H]3CC[C@]12C` (stereo not given in full), the pEC50 was below 3.70 and the negative-log IC50 (pIC50) was below 3.70.
Regarding `COc1ccc(N2C(=O)C(=O)N(C)C2=O)c2ccccc12`, the outcome was inactive.
Regarding `C=CCNC(=S)OCCCCCCCCCC`, the result was inactive.
Regarding `C1=C[C@@H]2c3ccc4cnccc4c3NC[C@@H]2C1`, the pEC50 is below 3.23 and the pIC50 was 4.44.
For `O=C1CCC2(c3ccc(F)cc3)Nc3ncccc3N12` (stereo not given), in that order: below 3.88 and below 3.88.
For the compound `CC1(C)CC(=O)C2=C(C1)OC(N)=C(c1nc(-c3ccccc3)cs1)C2c1ccc(Br)cc1` (stereo not given), the pEC50 was below 3.70 and the pIC50 was 4.64.
Turning to `O=C1CCC2(c3ccc(Cl)cc3)Nc3ccccc3N12` (stereo not given), the outcome was inactive.
With `CCN(CC)CCSc1c2cc(OC)ccc2nc2ccc(OC)cc12`, the pEC50 is below 3.70 and the pIC50 was 5.53.
